Laboratory results: ChEMBL document CHEMBL5528067, “From Synergy to Monotherapy: Discovery of Novel 2,4,6-Trisubstituted Triazine Hydrazone Derivatives with Potent Antifungal Potency In Vitro and In Vivo” (J Med Chem, 2024)
In brackets after ≈: the same amount, converted by molar mass. Activity calls are given as the source filed them. No cut-off for these calls is given here.

What was measured:
[1] = Cytotoxicity against human HUVEC cells assessed as cell viability at 16 microg/ml measured after 24 hrs by CCK-8 assay relative to control; assay type: toxicity, cell-based; conditions: at 16 µg/mL, read-out: Activity
[2] = tested on: Candida albicans; test: Suppression of BCR1 gene expression in Candida albicans SC5314 assessed as fold increase at 8 microg/ml by real time RT-PCR analysis relative to control; assay type: functional; conditions: dose 8.0 µg/ml
[3] = Metabolic stability in mouse liver microsomes assessed as half life measured upto 60 mins by LC-MS/MS analysis; assay type: ADME, Microsome
[4] = tested on: [Candida] auris; test: Antifungal activity against FCZ-resistant Candida auris 919 assessed as growth inhibition measured after 48 hrs incubation by CLSI based micro-dilution broth method; assay type: functional; conditions: Candidozyma auris
[5] = tested on: Candida albicans; test: Antifungal activity against FCZ-resistant Candida albicans SC5314 assessed as reduction in CFU at 0.5 to 2 microg/ml measured at 24 hrs incubation by time kill assay (reference value: 5 log10 CFU/ml); assay type: functional; conditions: dose 0.5-2 µg/ml
[6] = tested on: Candida albicans; test: Antifungal activity against FCZ-resistant Candida albicans strains assessed as growth inhibition in presence of FCZ measured after 48 hrs incubation by CLSI based micro-dilution broth method; assay type: functional
[7] = tested on: Candida albicans; test: Upregulation of EFG1 gene expression in Candida albicans SC5314 assessed as fold increase at 4 microg/ml by real time RT-PCR analysis relative to control; assay type: functional; conditions: dose 4.0 µg/ml
[8] = tested on: Candida albicans; test: Antibiofilm activity against Candida albicans SC5314 assessed as inhibition of biofilm formation incubated for 24 hrs by XTT/menadione reduction assay; assay type: functional, organism-based; conditions: dose 1-64 µg/ml
[9] = tested on: Pichia kudriavzevii; test: Antifungal activity against FCZ-resistant Candida krusei 4996 assessed as growth inhibition at 4 microg/ml measured at 24 hrs incubation by time growth assay; assay type: functional, organism-based; conditions: dose 4.0 µg/ml
[10] = tested on: Candida albicans; test: Suppression of SAP2 gene expression in Candida albicans SC5314 assessed as fold increase at 8 microg/ml by real time RT-PCR analysis relative to control; assay type: functional; conditions: dose 8.0 µg/ml
[11] = tested on: Candida albicans; test: Antibiofilm activity against Candida albicans SC5314 assessed as inhibition of biofilm formation at 32 microg/ml incubated for 24 hrs by XTT/menadione reduction assay relative to control; assay type: functional; design: scale not given: the % may be the effect or the level left; conditions: dose 32 µg/ml
[12] = tested on: Candida parapsilosis; test: Antifungal activity against Candida parapsilosis 22019 assessed as growth inhibition measured after 48 hrs incubation by CLSI based micro-dilution broth method; assay type: functional; conditions: Lodderomyces parapsilosis
[13] = tested on: Candida albicans; test: Synergistic antifungal activity against FCZ-resistant Candida albicans strain 901 assessed as fractional inhibitory concentration index measured after 48 hrs in presence of FCZ by CLSI based micro-dilution broth method; assay type: functional
[14] = tested on: Candida albicans; test: Antifungal activity against FCZ-resistant Candida albicans SC5314 assessed as growth inhibition measured after 48 hrs incubation by CLSI based micro-dilution broth method; assay type: functional
[15] = tested on: Candida albicans; test: Upregulation of SAP2 gene expression in Candida albicans SC5314 assessed as fold increase at 4 microg/ml by real time RT-PCR analysis relative to control; assay type: functional; conditions: dose 4.0 µg/ml
[16] = tested on: Candida albicans; test: Induction of cell wall component change in Candida albicans SC5314 assessed as thinner mannan layer at 4 microg/ml measured after 12 hrs by transmission electron microscopy; assay type: functional, organism-based; conditions: dose 4.0 µg/ml
[17] = tested on: Candida albicans; test: Effect on of BRG1 gene expression in Candida albicans SC5314 at 4 to 8 microg/ml by real time RT-PCR analysis; assay type: functional; conditions: dose 4-8 µg/ml
[18] = tested on: Candida albicans; test: Antibiofilm activity against Candida albicans SC5314 assessed as biofilm disruption at 32 microg/ml incubated for 24 hrs by XTT/menadione reduction assay relative to control; assay type: functional; design: scale not given: the % may be the effect or the level left; conditions: dose 32 µg/ml
[19] = tested on: Candida albicans; test: Upregulation of BCR1 gene expression in Candida albicans SC5314 assessed as fold increase at 4 microg/ml by real time RT-PCR analysis relative to control; assay type: functional; conditions: dose 4.0 µg/ml
[20] = tested on: Candida albicans; test: Effect on ECE1 gene expression in Candida albicans SC5314 at 4 to 8 microg/ml by real time RT-PCR analysis; assay type: functional; conditions: dose 4-8 µg/ml
[21] = MRT (0 to t) in Sprague-Dawley rat at 2 mg/kg, iv measured upto 24 hrs by LC-MS/MS analysis; assay type: ADME, organism-based; conditions: in vivo
[22] = tested on: Candida albicans; test: Effect on of UME6 gene expression in Candida albicans SC5314 at 4 to 8 microg/ml by real time RT-PCR analysis; assay type: functional; conditions: dose 4-8 µg/ml
[23] = tested on: Candida albicans; test: Induction of cell wall component change in Candida albicans SC5314 assessed as decrease in mannan content by measuring ConA fluorescence intensity at 4 microg/ml measured after 12 hrs by confocal laser-scanning microscopy; assay type: functional, organism-based; conditions: dose 4.0 µg/ml
[24] = tested on: Candida albicans; test: Suppression of ALS1 gene expression in Candida albicans SC5314 at 4 to 8 microg/ml by real time RT-PCR analysis; assay type: functional; conditions: dose 4-8 µg/ml
[25] = tested on: Candida albicans; test: In vivo antifungal activity against Candida albicans SC5314 infected in po dosed C57BL/6J mouse assessed as reduction in fungal burden in kidney treated once a day for 2 days; assay type: functional, organism-based; conditions: dose 5-10 mg/kg, time 2.0 day
[26] = tested on: Candida albicans; test: Induction of cell wall component change in Candida albicans SC5314 assessed as swollen inner beta glucan layer at 4 microg/ml measured after 12 hrs by transmission electron microscopy; assay type: functional, organism-based; conditions: dose 4.0 µg/ml
[27] = tested on: Candida albicans; test: Effect on sterol biosynthesis in Candida albicans SC5314 assessed as sterol component and content at 4 microg/ml measured after 8 hrs by GC-MS analysis; assay type: functional, organism-based; conditions: dose 4.0 µg/ml
[28] = tested on: Candida albicans; test: Upregulation of SAP6 gene expression in Candida albicans SC5314 assessed as fold increase at 4 microg/ml by real time RT-PCR analysis relative to control; assay type: functional; conditions: dose 4.0 µg/ml
[29] = Metabolic stability in mouse liver microsomes assessed as intrinsic clearance measured per mg of protein upto 60 mins by LC-MS/MS analysis; assay type: ADME, Microsome; conditions: read-out: CLH
[30] = tested on: Candida albicans; test: Suppression of EFG1 gene expression in Candida albicans SC5314 assessed as fold increase at 8 microg/ml by real time RT-PCR analysis relative to control; assay type: functional; conditions: dose 8.0 µg/ml
[31] = tested on: Nakaseomyces glabratus; test: Antifungal activity against Candida glabrata 537 assessed as growth inhibition measured after 48 hrs incubation by CLSI based micro-dilution broth method; assay type: functional
[32] = tested on: Candida albicans; test: Antibiofilm activity against Candida albicans SC5314 assessed as inhibition of biofilm formation at 4 microg/ml incubated for 24 hrs by XTT/menadione reduction assay relative to control; assay type: functional; design: scale not given: the % may be the effect or the level left; conditions: dose 4 µg/ml
[33] = tested on: [Candida] auris; test: Antifungal activity against FCZ-resistant Candida auris 918 assessed as growth inhibition measured after 48 hrs incubation by CLSI based micro-dilution broth method; assay type: functional; conditions: Candidozyma auris
[34] = tested on: Candida albicans; test: Antifungal activity against FCZ-resistant Candida albicans strain 904 assessed as growth inhibition in presence of fluconazole measured after 48 hrs incubation by CLSI based micro-dilution broth method; assay type: functional
[35] = Cytotoxicity against human HUVEC cells assessed as cell viability measured after 24 hrs by CCK-8 assay; assay type: toxicity, cell-based
[36] = tested on: Candida albicans; test: Induction of cell wall component change in Candida albicans SC5314 assessed as irregular and shrunken cell membrane chitin structure at 4 microg/ml measured after 12 hrs by transmission electron microscopy; assay type: functional, organism-based; conditions: dose 4.0 µg/ml
[37] = tested on: Candida albicans; test: Suppression of SAP6 gene expression in Candida albicans SC5314 assessed as fold increase at 8 microg/ml by real time RT-PCR analysis relative to control; assay type: functional; conditions: dose 8.0 µg/ml
[38] = tested on: Candida albicans; test: Filamentation inhibitory effect in Candida albicans SC5314 assessed as inhibition of hyphal formation using hyphal-inducing RPMI 1640 medium at 2 to 8 microg/ml measured after 3 hrs by inverted imaging microscopy; assay type: functional, organism-based; conditions: dose 2-8 µg/ml

O=[N+]([O-])c1ccc(O)c(/C=N/Nc2nc(NCc3ccc(F)cc3)nc(NCc3ccc(F)cc3)n2)c1
viability at 24 h, 16 microg/ml [1]: 75.5% | fold change (FC) [2]: 1.58 | half-life [3]: 55.8 min | MIC80 [4]: 16 mg/L (≈ 31.6 µM) | Activity [5]: 3.2 log10CFU/ml | MIC80 [6]: 0.5 mg/L | fold change (FC) [7]: 2.56 | Activity [8]: Dose-Dependent Effect | Activity [9]: Active | fold change (FC) [10]: 1.22 | Activity [11]: 70% | MIC80 [12]: 2 mg/L (≈ 3.95 µM) | fractional inhibitory concentration index (FICI) [13]: 0.25 | MIC80 [14]: 4 mg/L (≈ 7.9 µM) | fold change (FC) [15]: 1.86 | Activity [16]: Active | Activity [17]: inactive | Activity [18]: <30% | fold change (FC) [19]: 1.9 | Activity [20]: inactive | MRT last at 24 h [21]: 45 min | Activity [22]: inactive | Activity [23]: Active | Activity [24]: Active | Activity [25]: Dose-Dependent Effect | Activity [26]: Active | Activity [27]: inactive | fold change (FC) [28]: 4.38 | microsomal CLint [29]: 24.9 µL/min/mg | fold change (FC) [30]: 1.52 | MIC80 [31]: 0.5 mg/L (≈ 0.987 µM) | Activity [32]: 40% | MIC80 [33]: 2 mg/L (≈ 3.95 µM) | MIC80 [34]: 0.25 mg/L | IC50 at 24 h [35]: 41.4 mg/L (≈ 81.7 µM) | Activity [36]: Active | fold change (FC) [37]: 2.99 | Activity [38]: Active
